Source: US9815850B2, “Compounds, compositions and methods” (Denali Therapeutics Inc., priority 2016, dated 2017)
Read-outs that look alike come from different tables or passages of the source.

Key:
[1] = molecular target: P-gp (P-glycoprotein, MDR1) (Homo sapiens (Human), UniProt P08183); experiment: MDCKII-MDR1 permeability, efflux ratio; format: in vitro ADME; details: dog, MDCK-MDR1, pH 7.4, MDCKII-MDR1 cells, read-out: ER MDR1
Method: The blood brain barrier (BBB) separates circulating blood from the extracellular fluid of the central nervous system (CNS). The passive membrane permeability (Papp) and the P-gp (P-glycoprotein) substrate efflux potential were determined using the MDCKII-MDR1 cell line as an in vitro model of the effective permeability of a compound through the BBB. A bidirectional assay (Apical to Basolateral (A→B) and Basolateral to Apical (B→A)), in the absence and in the presence of GF120918 (a P-gp inhibitor) was conducted using pre-plated MDCKII-MDR1 cells (Corning HTS Transwell-96) obtained from SOLVO Biotechnology. The assay was run at 3 μM for 90 min (minutes) in triplicate using a HBSS+12.5 mM HEPES pH 7.4 transport buffer. Following incubation of samples from donor and receiver, wells were removed and measured by LC-MS/MS. Samples were extracted by protein precipitation with acetonitrile containing an appropriate internal standard (IS) having a known mass and molecular weight. The precipitate was centrifuged for 10 min at 3000 rpm (revolutions per minute). The supernatants were then collected, diluted if necessary, and injected on to the LC-MS/MS system. […] Papp (apparent permeability expressed in nm/sec [nanometer/second]) values were calculated according to the following equation: […]
Where dQ/dt is the permeability rate, C0 is the initial concentration in the donor solution (expressed as IS ratio), A and B are the surface areas of the filter (the surface area of the cell monolayer).
Monolayer efflux ratios (ER) were derived using the following equation: […]

[2] = tested on: human cryopreserved hepatocytes; experiment: Metabolic stability (hepatocytes); format: in vitro ADME; details: well-stirred model
From the text: Hepatic clearance is expressed as mL/min/kg.

[3] = in vivo
[4] = tested on: FADD-deficient Jurkat cells; experiment: Cellular necroptosis assay (human TNFα-induced); format: cell-based; details: read-out: Cell IC50
Method: Ten concentrations of the test compounds were assessed in duplicate in two different test occasions. […] The day of the experiment cells were diluted to a density of […] (5,000 cells/well) with culture medium and added (40 μL) into the 384-well plate containing 0.2 μL/well of test compounds and reference compounds (CRCs) (200×). Cell plates were then incubated at 37° C.-5% CO2. After 30 min, necroptotic cell death was induced with human TNFα (10 ng/mL) and cell viability was evaluated 48 h later by measuring cellular ATP levels using CellTiter-Glo® kit (Promega). Luminescence was read by using Victor V (Perkin Elmer) multilabel plate reader.

[5] = molecular target: GST-hRIPK1 (8-327) (Homo sapiens (Human), UniProt Q13546); experiment: Fluorescent Polarization Binding (FP Binding) assay
Sequence of GST-hRIPK1 (8-327) (Q13546 8-327): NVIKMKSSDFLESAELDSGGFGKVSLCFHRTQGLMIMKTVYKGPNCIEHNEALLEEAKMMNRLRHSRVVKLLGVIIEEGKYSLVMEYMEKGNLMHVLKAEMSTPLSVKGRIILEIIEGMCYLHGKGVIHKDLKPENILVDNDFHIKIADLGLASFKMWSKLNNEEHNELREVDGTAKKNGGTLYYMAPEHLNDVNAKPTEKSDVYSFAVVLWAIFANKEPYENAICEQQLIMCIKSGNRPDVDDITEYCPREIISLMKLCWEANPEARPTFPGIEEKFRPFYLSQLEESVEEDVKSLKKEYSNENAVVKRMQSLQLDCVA
Method: Fluorescent Polarization Binding (FP Binding) assay (Berger S. B. et al. […] Maki J. L. et al. […] Test Compounds were serially diluted in DMSO at 100 fold final concentrations in the assay (1% DMSO final). […] For negative control the enzyme addition was replaced by assay buffer only. After addition of 5 μL of fluorescent labeled ligand at twice the final concentrations in assay buffer, the plate was incubated at RT for 30 min.

[6] = tested on: TNF/zVAD; experiment: TNF-driven systemic inflammatory response syndrome model; format: in vivo; details: 5 mg/kg orally 15 minutes before intravenous TNF/zVAD, mice
From the text: The in vivo efficacy of compounds can be determined in mice using a TNF-driven systemic inflammatory response syndrome model as described by Duprez et. al. (2011, Immunity 35(6), 908-918) and Berger et. al. (2015, Cell Death Disc. 1, 15009). In this model system TNF/zVAD (tumor necrosis factor/Z-Val-Ala-DL-Asp-fluoromethylketone, a caspase inhibitor) treatment results in temperature loss and the production of several inflammatory cytokines. The ability of a test compound to inhibit these inflammatory effects can be measured in this model by dosing mice with test compound 15 minutes before administration of TNF/zVAD and measuring the inflammatory response. The dose required to inhibit the inflammatory response is a measure of the compounds efficacy at that dose. Using this model, Compound 42 was orally pre-dosed at 5 mg/kg 15 minutes before intravenous administration of TNF/zVAD and temperature loss in the mice was measured by an implanted temperature chip. […] The decrease in dosing has a number of important potential advantages, including requiring less frequent administration to a patient, increased patient compliance, and improved safety profile such as lower toxicities while achieving similar efficacy.

[7] = male, Beagle, in vivo
[8] = tested on: human cryopreserved hepatocytes; experiment: Metabolic stability (hepatocytes); format: in vitro ADME; details: from human CLhep
[9] = cynomolgus monkey, in vivo
[10] = male, Sprague-Dawley Crl:CD(SD)
[11] = 10 nM GST-hRIPK1 (8-327), 5 nM fluorescent labeled ligand, read-out: FP IC50
[12] = Homo sapiens, 48 h, human TNFα 10 ng/mL, viability after 48 h

Sequence of P-gp (P-glycoprotein, MDR1) (P08183 whole entry): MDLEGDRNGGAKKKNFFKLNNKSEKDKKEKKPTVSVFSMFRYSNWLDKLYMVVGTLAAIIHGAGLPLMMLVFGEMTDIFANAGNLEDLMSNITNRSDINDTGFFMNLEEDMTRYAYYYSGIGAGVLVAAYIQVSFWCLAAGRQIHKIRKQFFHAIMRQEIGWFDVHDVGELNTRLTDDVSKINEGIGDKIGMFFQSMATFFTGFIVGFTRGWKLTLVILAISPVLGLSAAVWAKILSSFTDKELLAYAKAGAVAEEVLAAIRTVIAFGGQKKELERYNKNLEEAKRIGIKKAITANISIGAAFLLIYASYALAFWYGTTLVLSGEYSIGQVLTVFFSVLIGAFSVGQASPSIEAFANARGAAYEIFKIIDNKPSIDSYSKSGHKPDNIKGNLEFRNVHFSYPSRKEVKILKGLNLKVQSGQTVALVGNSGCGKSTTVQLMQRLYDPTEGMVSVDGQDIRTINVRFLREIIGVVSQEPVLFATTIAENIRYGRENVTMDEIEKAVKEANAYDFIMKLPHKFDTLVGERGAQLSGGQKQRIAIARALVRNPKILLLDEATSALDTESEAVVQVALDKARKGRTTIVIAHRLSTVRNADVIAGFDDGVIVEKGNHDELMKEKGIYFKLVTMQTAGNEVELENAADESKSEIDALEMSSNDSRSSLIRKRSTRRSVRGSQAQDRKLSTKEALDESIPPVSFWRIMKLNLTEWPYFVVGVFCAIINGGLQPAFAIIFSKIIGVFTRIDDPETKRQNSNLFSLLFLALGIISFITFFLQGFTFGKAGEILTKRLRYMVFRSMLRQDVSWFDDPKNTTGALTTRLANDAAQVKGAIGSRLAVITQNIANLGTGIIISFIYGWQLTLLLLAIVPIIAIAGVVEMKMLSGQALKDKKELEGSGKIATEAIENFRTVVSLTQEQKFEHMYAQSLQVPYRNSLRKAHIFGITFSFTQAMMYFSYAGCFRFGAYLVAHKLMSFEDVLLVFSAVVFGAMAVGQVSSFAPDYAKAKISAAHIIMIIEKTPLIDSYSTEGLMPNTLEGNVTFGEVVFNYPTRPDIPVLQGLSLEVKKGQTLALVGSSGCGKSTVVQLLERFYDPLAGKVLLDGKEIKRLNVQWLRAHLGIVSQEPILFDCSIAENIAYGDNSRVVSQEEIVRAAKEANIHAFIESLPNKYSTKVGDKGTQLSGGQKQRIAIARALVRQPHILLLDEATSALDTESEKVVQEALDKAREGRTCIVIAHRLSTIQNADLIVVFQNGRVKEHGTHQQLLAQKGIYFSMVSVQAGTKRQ

Compound | efflux ratio at 90 min, 3 μM [1] | Human hepatocyte CLhep Avg [2] [mL/min/kg] | Rat unbound CL [3, 10] [mL/min/kg] | Cyno unbound CL ([9]; male) [mL/min/kg] | IC50 [4, 12] [nM] | also measured
CN1C(=O)[C@@H](NC(=O)c2nnc(Cc3ccccc3)o2)COc2ccccc21 [B, reference compound] | 1 | 14 | – | – | – | –
CN1C(=O)[C@@H](NC(=O)c2cc(Cc3ccccc3)on2)COc2ccccc21 [C, reference compound] | 0.9 | 19 | – | – | – | –
CN1C(=O)[C@@H](NC(=O)c2cc(C3(c4ccccc4)CC3)on2)COc2ccccc21 [Example 8, (S)-N-(5-methyl-4-oxo-2,3,4,5-tetrahydrobenzo[b][1,4]oxazepin-3-yl)-5-(1-phenylcyclopropyl)isoxazole-3-carboxamide] | 0.8 | – | 3700 | – | – | IC50 ([4]; human TNFα 10 ng/mL, viability after 48 h): 4 nM
CN1C(=O)[C@@H](NC(=O)c2nnc(Cc3ccccc3)[nH]2)COc2cccnc21 [Example 42, (S)-5-benzyl-N-(5-methyl-4-oxo-2,3,4,5-tetrahydropyrido[3,2-b][1,4]oxazepin-3-yl)-4H-1,2,4-triazole-3-carboxamide] | 19 | 0.8 | 22 | 42 | – | IC50 [5]: 0.1 to 1000 nM; inhibition of temperature loss [6]: 96%; Dog unbound CL [7]: 64 mL/min/kg; clearance as % of liver blood flow [8]: less than 4%; IC50 ([4]; Homo sapiens, 48 h): 0.1 to 1000 nM
CN1C(=O)[C@@H](NC(=O)c2nnc(Cc3ccccc3)[nH]2)[C@H]2C[C@H]2c2ccccc21 [Example 46A] | – | – | – | – | – | Rat unbound CL [3]: 188 mL/min/kg
CN1C(=O)[C@@H](NC(=O)c2nnc(C3(c4ccccc4)CC3)o2)COc2cccnc21 [Example 66, (S)—N-(5-methyl-4-oxo-2,3,4,5-tetrahydropyrido[3,2-b][1,4]oxazepin-3-yl)-5-(1-phenylcyclopropyl)-1,3,4-oxadiazole-2-carboxamide] | 1.6 | 6.3 | 113 | 116 | – | IC50 [5, 11]: 0.1 to 1000 nM; Dog unbound CL [7]: 36 mL/min/kg
CN1C(=O)[C@@H](NC(=O)c2nnc(Cc3ccccc3)[nH]2)[C@H]2C[C@H]2c2cccnc21 [Example 75A, 5-benzyl-N-((1aS,2S,8bR)-4-methyl-3-oxo-1,1a,2,3,4,8b-hexahydrocyclopropa[d]pyrido[2,3-b]azepin-2-yl)-4H-1,2,4-triazole-3-carboxamide] | 24 | 9.1 | 91 | 93 | – | IC50 [5, 11]: 0.1 to 1000 nM
O=C(N[C@@H]1C(=O)Nc2c(F)cc(F)cc2[C@@H]2C[C@H]12)c1nnc(Cc2ccccc2)[nH]1 [Example 83A, 5-benzyl-N-((1aS,2S,8bR)-5,7-difluoro-3-oxo-1,1a,2,3,4,8b-hexahydrobenzo[b]cyclopropa[d]azepin-2-yl)-4H-1,2,4-triazole-3-carboxamide] | 29 | 1.0 | 116 | 82 | – | IC50 [5, 11]: 0.1 to 1000 nM
CN1C(=O)[C@@H](NC(=O)c2nnc(Cc3ccccc3)o2)[C@H]2C[C@H]2c2nccnc21 [Example 177A] | – | – | – | – | – | Rat unbound CL [3]: 55 mL/min/kg; Cyno unbound CL [9]: 58 mL/min/kg
[2H]C([2H])([2H])N1C(=O)[C@@H](NC(=O)c2nn(Cc3ccccc3)cc2F)[C@@H](C)Oc2ncccc21 [Example 205, 1-benzyl-N-((3S,4R)-1-trideuteriomethyl-4-methyl-2-oxo-1,2,3,4-tetrahydropyrido[2,3-b][1,4]oxazepin-3-yl)-4-fluoro-1H-pyrazole-3-carboxamide] | – | – | – | – | 21 | –

The next lines start with results.

efflux ratio at 90 min, 3 μM [1] | Human hepatocyte CLhep Avg [2] [mL/min/kg] | Rat unbound CL [3, 10] [mL/min/kg] | Cyno unbound CL ([9]; male) [mL/min/kg] | Compound | IC50 [4, 12] [nM] | also measured
0.6 | 19 | 595 | – | CN1C(=O)[C@@H](NC(=O)c2cc(C3(c4ccccc4)CC3)on2)COc2cccnc21 [Example 77, (S)—N-(5-methyl-4-oxo-2,3,4,5-tetrahydropyrido[3,2-b][1,4]oxazepin-3-yl)-5-(1-phenylcyclopropyl)isoxazole-3-carboxamide] | – | IC50 [5, 11]: 0.1 to 1000 nM
1.4 | – | 420 | – | C[C@H]1Oc2cccnc2N(C)C(=O)[C@H]1NC(=O)c1nn(Cc2ccccc2)cc1F [Example 92, 1-benzyl-N-((2R,3S)-2,5-dimethyl-4-oxo-2,3,4,5-tetrahydropyrido[3,2-b][1,4]oxazepin-3-yl)-4-fluoro-1H-pyrazole-3-carboxamide] | 0.7 | –
14 | – | 44 | 40 | C[C@H]1Oc2cccnc2N(C)C(=O)[C@H]1NC(=O)c1nnc(Cc2ccccc2)[nH]1 [Example 94, 5-benzyl-N-((2R,3S)-2,5-dimethyl-4-oxo-2,3,4,5-tetrahydropyrido[3,2-b][1,4]oxazepin-3-yl)-4H-1,2,4-triazole-3-carboxamide] | 6 | –
1.1 | – | 100 | 140 | C[C@H]1Oc2cccnc2N(C)C(=O)[C@H]1NC(=O)c1nnc(Cc2ccccc2)o1 [Example 134, 5-Benzyl-N-((2R,3S)-2,5-dimethyl-4-oxo-2,3,4,5-tetrahydropyrido[3,2-b][1,4]oxazepin-3-yl)-1,3,4-oxadiazole-2-carboxamide] | 3 | –
1 | – | 61 | 39 | CN1C(=O)[C@@H](NC(=O)c2nnc(Cc3ccccc3)o2)COc2cccnc21 [Example 146, (S)-5-benzyl-N-(5-methyl-4-oxo-2,3,4,5-tetrahydropyrido[3,2-b][1,4]oxazepin-3-yl)-1,3,4-oxadiazole-2-carboxamide] | 0.7 | –
– | – | 32 | – | CN1C(=O)[C@@H](NC(=O)c2ncn(Cc3cccc(C#N)c3)n2)COc2cccnc21 [Example 171, (S)-1-(3-cyanobenzyl)-N-(5-methyl-4-oxo-2,3,4,5-tetrahydropyrido[3,2-b][1,4]oxazepin-3-yl)-1H-1,2,4-triazole-3-carboxamide] | – | –
– | – | 65 | – | C[C@H]1Oc2cccnc2N(C)C(=O)[C@H]1NC(=O)c1ncn(Cc2cccc(C#N)c2)n1 [Example 172, 1-(3-cyanobenzyl)-N-((2R,3S)-2,5-dimethyl-4-oxo-2,3,4,5-tetrahydropyrido[3,2-b][1,4]oxazepin-3-yl)-1H-1,2,4-triazole-3-carboxamide] | 1 | –
